Consider one substance from patent US20210361688A1 (priority 2020, published 2021).

Series [1] is described as follows: Estimated ivermectin concentration delivered into the respiratory pathways per nebulization. Also on record: species or system human. The settings on record: about 10% of nebulized solution reaches the respiratory pathways; approx. 3 mg into 150 cc dead space. The procedure:
3 mL of the solution was administered to the subject directly into the lungs in the form of an inhalable mist.

In series [2] the test system is SARS-CoV-2 isolate Australia/VIC01/2020. The settings on record: cited from earlier work.
The conditions of series [3]: cited from earlier work.
The next series deals with pseudorabies virus (PRV). The settings on record: mouse, in vivo; cited from earlier work.
Where [4] appears, read: ivermectin 5 μM from 2 hours post-infection, 24 h, Vero-hSLAM cells.

Take ivermectin: in series [1], the “ivermectin delivered per cc of dead space per nebulization” value is recorded as “approximately 0.02 mg per cc”. For the same substance, the “IC50 concentration necessary to inhibit viral replication” value in series [2] (as quoted in Example 2) is recorded as 0.00175 mg/cc. Also, in series [2] (setting [4]), the “reduction in viral RNA versus DMSO control, cell associated viral RNA (total virus)” value is listed as 99.8% and the “reduction in viral RNA versus DMSO control, supernatant (released virions)” value was 93%. Further, the “fold reduction of viral RNA” value in series [2] (ivermectin 5 μM, by hour 48, effect maintained at 72 hours) is reported as 5000 fold. For the same substance, in series [2] (serial dilutions of ivermectin, Vero-hSLAM cells, read-out: IC50 against SARS-CoV-2), the concentration for half-maximal inhibition (IC50) was around 2000 nM. Further, the “tolerability of high doses” value in series [3] (adults or children) was “well tolerated”. Further, the maximum plasma concentration in series [3] (humans, highest reported dose of approximately 1700 μg/kg) is 0.28 µM. Besides, the “survival in PRV-infected mice” value in the series with pseudorabies virus (PRV) was “increase survival”.

What is called IC50 is the midpoint of a concentration-inhibition curve.
